Laboratory results published in patent US20040220220A1, “Method for treating inflammatory bowel disease” (priority 2001, published 2004).
Where “and” joins values, the source holds several entries; their conditions need not be identical. Identical values can stand only once.

Legend:
Human eosinophils [1] = experiment: Eosinophil extracellular superoxide production (cytochrome c); assay type: cell-based; details: 1 hr pretreatment at 37° C.; IL-5 or PAF stimulus
Procedure: (§1) Human eosinophils were isolated from atopic and non-atopic donors using density centrifugation and CD16-magnetic bead negative selection. Eosinophil purity was always>93%.
Statistical analyses were performed using the Student's paired t-test; significance defined as p value<0.05 compared to “nil” or 0.0 microM HCQ.
The general procedure described hereinabove was followed. Eosinophils were pretreated with HCQ for 1 hr at 37° C. and then stimulated as described in FIG. 1 in 96-well plates (50,000 cells/well). Extracellular superoxide was detected using cytochrome c and a 96-well plate reader.

Human eosinophils [2] = experiment: IL-5 stimulated eosinophil degranulation, EDN release by DARIA; assay type: cell-based
Text: FIG. 2 graphically depicts the effect of HCQ on IL-5 stimulated eosinophil degranulation as measured by release of eosinophil-derived neurotoxin. In this figure, EDN refers to eosinophil-derived neurotoxin.
as §1
The general procedure described hereinabove and Example 1 was followed. Supernatants from superoxide assay samples were analyzed for EDN by Double-Antibody Radioimmunoassay (DARIA). The results are depicted in FIG. 2.

[3] = system: Primary Human Epithelial Cells (tonsillar); experiment: IP-10/RANTES production in primary epithelial cells exposed to HRV-16; assay type: cell-based
Procedure: Primary cultures of harvested human tonsillar epithelial cells were preincubated for 24 hr with 50 microM HCQ. The cells were then exposed to human rhinovirus type 16 (HRV-16) which was left on the cells in the presence and absence of HCQ. Medium was recovered at two different time post infection (24 hr viral incubation and 48 hr viral incubation) and assayed for IP-10 and RANTES. The data is depicted in Table 1 below and in FIG. 5.

leukocytes = details: ex vivo and in vitro experiments; cited from earlier work
[4] = conventional oral doses 4-6 mg/kg/day, after 3 months therapy, two clinical trials; cited from earlier work
BEAS-2B epithelial cells = experiment: IP-10/RANTES production in BEAS-2B cells exposed to HRV-16; assay type: cell-based; details: 48 hr
Procedure: Cells of the BEAS-2B epithelial cell line were preincubated for either 6 hr or 24 hr with varying concentrations of HCQ. Cells were then exposed to human rhinovirus type 16 (HRV-16) which was left on the cells in the presence and absence of HCQ at the concentrations indicated for 48 hr. The data is depicted in Table 2 and FIG. 13.

Human eosinophils [5] = experiment: IL-5 stimulated eosinophil survival by flow cytometry; assay type: cell-based; details: 100 pg/ml IL-5, four days, compared with dexamethasone
Procedure: as §1
Flow cytometry was performed on a Becton Dickenson FACScan. Data was analyzed using CellQuest software. For cell surface marker determination, specific antibodies directly conjugated with the fluorescent indicator, phycoerythrin (PE) were utilized.
The general procedure described hereinabove was followed. Eosinophils were incubated with 100 pg/ml IL-5 with or without dexamethasone or HCQ. After four days, eosinophil viability was measured by flow cytometry. The results are depicted in FIG. 3.

[6] = lupus erythematosus and rheumatoid arthritis; cited from earlier work
[7] = asthma, oral HCQ; cited from earlier work
[8] = system: human tracheal epithelial cells; experiment: Pro-inflammatory mRNA in tracheal epithelial cultures infected with RV16, RT-PCR; assay type: cell-based; details: 50 microM HCQ, RV16 infection
Procedure: Differentiated cultures of human tracheal cells grown at an air liquid interface were pre-incubated for 12h with 50 microM HCQ prior to 12 h infection with human rhinovirus type 16 (HRV-16). Twelve hours after removal of virus, levels of mRNA for RANTES, ICAM-1, IL-1beta, TNF-alpha and IL-6 were quantified using multiplex two-step (TaqMan) RT-PCR. The results are depicted in FIGS. 6-10.
(§2) FIG. 6 graphically depicts the effects of HCQ on the release of RANTES (regulated on activation normal T-cell expressed and secreted) in cultured human tracheal epithelial cells. In the figure, RV16-p3 refers to the rhinovirus strain. Human tracheal epithelial cells were cultured for 14 days in serum-free growth media. On day 14, the cultures were divided into four groups. Two groups were pre-treated for 6 hours with HCQ (final concentration 50 microM) in media administered via the basolateral side. Then RV-16-p3 at a tissue culture infectious dose (TCID50) of 10^6/ml was added to one of groups receiving HCQ and one of thgroups not pretreated with HCQ. Phosphate buffered saline (PBS) was added to the other two groups, creating four conditions: media alone (control), HCQ alone, RV-16-p3 alone and RV-16-p3+HCQ. After six hours, the experimental suspensions were removed and the cells were washed three times with PBS. Cells were allowed to recover for 24h and then the mucosal surfaces of the culture inserts were flushed with 500 microL of PBS and the flushings were retained.
The filters containing the cell sheets were cut in half and placed in RLT buffer (Rneasy lysis buffer) or fixed in 10% buffered formalin prior to their preparation for fluorescence in situ hybridization (FISH) and gene expression analysis as described in detail elsewhere (Lopez-Souza N, et al., Resistance of differentiated human airway epithelium to infection by rhinovirus, Am J Physiol Lung Cell Mol Physiol, 2004;286:L373-81). Levels of mRNA for RANTES were determined in cell lysates using a two-step method of gene transcript profiling in which multiplex RT-PCR is combined with individual gene quantification via real-time PCR on generated cDNA product.
as §2, with “FIG. 7” for “FIG. 6”, “the upregulation” for “the release”, “of for intercellular adhision molecule 1 (ICAM-1)” for “of RANTES (regulated on activation normal T-cell expressed and secreted)”, “strain. ICAM refers to intracellular adhesion molecule 1.” for “strain.”, “of the groups” for “of thgroups”
FIG. 8 graphically depicts the effects of HCQ on the release of IL-1beta and TNF-alpha in cultured human tracheal epithelial cells. In the figure, RV16-p3 refers to the rhinovirus strain. IL-1 beta refers to Interleukin-1 beta. […]

[9] = system: neutrophil, macrophages, T cell; details: at concentrations in the range obtained by targeted delivery; cited from earlier work
[10] = Single-dose intravenous HCQ pharmacokinetics in dogs; assay type: in vivo, Beagle dogs; details: for AUC(0-inf) / Cmax / AUC(0-t) / half-life / Tmax / Vd / clearance: both sexes, beagle, dog, whole blood; for AUC(0-inf) / Cmax / AUC(0-t) / Tmax / Vd / clearance: single day; for AUC(0-t): read-out: AUC0-23; for half-life: 2-compartment model, read-out: Apparent terminal t1/2 (converted)
Procedure: Two Beagle dogs per dose group (one M: one F) received hydroxychloroquine sulfate, USP as an intravenous bolus infusion over 30 minutes.
Following the single injection, blood samples were drawn at one, two, three, five, six, seven, eight, 12, 18, 24, 36, 120, 192, 264, 360, 528, 696, 864 and 1,032 hours.

[11] = Single-dose intravenous HCQ pharmacokinetics in rats; assay type: in vivo; details: for Tmax / Vd / clearance / half-life / AUC(0-inf) / Cmax / AUC(0-t): both sexes, rat, whole blood; for Tmax / Vd / clearance / AUC(0-inf) / Cmax / AUC(0-t): single day; for half-life: 2-compartment model, read-out: Apparent Terminal t1/2 (converted); for AUC(0-t): read-out: AUC0-23
Procedure: Twelve rats per dose group (six M: six F) received hydroxychloroquine sulfate, USP as an intravenous bolus injected over 30 minutes.
Following the single injection, blood samples were drawn from rat pairs at one, three, six, 12, 24, 36, 48, 192, 360, and 1,032 hours.

[12] = rats, intravenous, 10 mg/kg/day

With `CCN(CCO)CCCC(C)Nc1ccnc2cc(Cl)ccc12` (centres unmarked) [HCQ, hydroxychloroquine] the “HCQ concentration at which IL-5 or PAF induced eosinophil superoxide is inhibited” value (Human eosinophils [1]) was “at least 0.5 mM and ≥ 200 mcg/ml”, the “HCQ concentration at which eosinophil degranulation is inhibited” value (Human eosinophils [2]) was greater than 100 µM and the “IP-10: hrs of preincubation 24” value ([3]; HRV-16 + 50 microM HCQ, 24) was 31 pg/mL. For the same compound, the “IP-10: hrs of preincubation 48” value ([3]; HRV-16 + 50 microM HCQ, 48) was 112 pg/mL, the “RANTES: hrs of preincubation 48” value ([3]; HRV-16 + HCQ, 48) was 509 pg/mL and the “incubation time to effect on leukocytes” value (leukocytes) was “less than 1 hour”. For the same compound, the “therapeutic benefit in IBD” value [4] was “in neither was a consistent therapeutic benefit evident”, the “IP-10: 6 hrs preincubation” value (BEAS-2B epithelial cells; HRV-16 + 0.01 mM HCQ) was 3084 pg/mL and the “IP-10: 24 hrs preincubation” value (BEAS-2B epithelial cells; HRV-16 + 0.01 mM HCQ) was 2506 pg/mL. The “RANTES: 6 hrs preincubation” value (BEAS-2B epithelial cells; HRV-16 + 0.01 mM HCQ) was 3326 pg/mL, the “IP-10: 6 hrs preincubation” value (BEAS-2B epithelial cells; HRV-16 + 0.1 mM HCQ) was 2914 pg/mL and the “IP-10: 24 hrs preincubation” value (BEAS-2B epithelial cells; HRV-16 + 0.1 mM HCQ) was 1814 pg/mL. The “RANTES: 6 hrs preincubation” value (BEAS-2B epithelial cells; HRV-16 + 0.1 mM HCQ) was 3128 pg/mL, the “IP-10: 6 hrs preincubation” value (BEAS-2B epithelial cells; HRV-16 + 1 mM HCQ) was 3045 pg/mL and the “IP-10: 24 hrs preincubation” value (BEAS-2B epithelial cells; HRV-16 + 1 mM HCQ) was 2098 pg/mL. For the same compound, the “RANTES: 6 hrs preincubation” value (BEAS-2B epithelial cells; HRV-16 + 1 mM HCQ) was 1994 pg/mL, the “IP-10: 6 hrs preincubation” value (BEAS-2B epithelial cells; HRV-16 + 50 mM HCQ) was 31 pg/mL and the “IP-10: 24 hrs preincubation” value (BEAS-2B epithelial cells; HRV-16 + 50 mM HCQ) was 31 pg/mL. The “RANTES: 6 hrs preincubation” value (BEAS-2B epithelial cells; HRV-16 + 50 mM HCQ) was 0 pg/mL, the eosinophil survival (Human eosinophils [5]) was “actively shortens eosinophil survival, to a much greater extent than a comparative dose of dexamethasone” and the onset of action [6] was 3-4 months. The “treatment time before therapeutic effect begins” value [7] was 24-26 weeks, the “release of IL-1beta” value [8] was “rapidly block” and the “release of IL-6” value [8] was “rapidly block”. For the same compound, the “release of IL-8” value [8] was “rapidly block”, the “release of TNF-alpha” value [8] was “rapidly block” and the “up-regulation of ICAM-1” value [8] was “rapidly block”. For the same compound, the “neutrophil and macrophage superoxide release, macrophage release of TNF-alpha, IL-6, Interferon-gamma and T cell activation” value [9] was “inhibited”, the “peak whole blood concentrations” value [10] was “less than 3 mcg/ml” and the AUC(0-inf) ([10]; 5 mg/kg/day) was 24200 ng·h/mL. It also gave a Cmax ([10]; 5 mg/kg/day) of 1200 ng/mL, an AUC(0-t) ([10]; 5 mg/kg/day) of 8160 ng·h/mL and an AUC(0-inf) ([10]; 10 mg/kg/day) of 82100 ng·h/mL. For the same compound, the Cmax ([10]; 10 mg/kg/day) was 2700 ng/mL, the AUC(0-t) ([10]; 10 mg/kg/day) was 30900 ng·h/mL and the half-life ([10]; 5 mg/kg/day) was 20.8 h. The Tmax ([10]; 5 mg/kg/day) was 0.5 h, the Vd ([10]; 5 mg/kg/day) was 9.1 L/kg and the clearance ([10]; 5 mg/kg/day) was 5 mL/min/kg. It also gave a half-life ([10]; 10 mg/kg/day) of 35 h, a Tmax ([10]; 10 mg/kg/day) of 0.5 h and a Vd ([10]; 10 mg/kg/day) of 6.1 L/kg. It also gave a clearance ([10]; 10 mg/kg/day) of 1.67 mL/min/kg, a Tmax ([11]; rats, intravenous, 5 mg/kg/day) of 0.5 h and a Vd ([11]; rats, intravenous, 5 mg/kg/day) of 11.1 L/kg. The clearance ([11]; rats, intravenous, 5 mg/kg/day) was 20 mL/min/kg, the half-life ([11]; rats, intravenous, 5 mg/kg/day) was 7.5 h and the Tmax [11, 12] was 0.5 h. For the same compound, the Vd [11, 12] was 11.2 L/kg, the clearance [11, 12] was 21.7 mL/min/kg and the half-life [11, 12] was 7.4 h. The AUC(0-inf) ([11]; rats, intravenous, 5 mg/kg/day) was 6560 ng·h/mL, the Cmax ([11]; rats, intravenous, 5 mg/kg/day) was 1020 ng/mL and the AUC(0-t) ([11]; rats, intravenous, 5 mg/kg/day) was 4050 ng·h/mL. It also gave an AUC(0-inf) [11, 12] of 11000 ng·h/mL, a Cmax [11, 12] of 1740 ng/mL and an AUC(0-t) [11, 12] of 7220 ng·h/mL. For the same compound, the “peak concentrations as fraction of those required” value ([11]; rats and dogs, intravenous, versus concentrations needed for in vitro effects) was 1/100 and the peak serum concentrations ([11]; rats, intravenous 10 mg/kg) was 2 µg/mL.
